# From ChEMBL document CHEMBL3885861, “Open TG-GATES”
# Species: Rattus norvegicus
# Assay: Open TG-GATES - Regimen: Single
# Type: toxicity, organism-based, Sprague-Dawley
# Design: regimen Single, gender Male, age 6 weeks
# Conditions: in vivo, po, 0 mg/kg, route gavage, dose level Control; for APTT / Bas / Eos / Fbg / Hb / Ht / Lym / MCH / MCHC / MCV / Mono / Neu / PT / Plat / RBC / Ret / WBC: tissue Blood; for KIDNEY_L / KIDNEY_R / KIDNEY_TOTAL: tissue Kidney; for LIVER: tissue Liver; for A/G / ALP / ALT / AST / BUN / CRE / Ca / Cl / DBIL / GLC / IP / K / LDH / Na / PL / RALB / TBIL / TC / TG / TP / gamma-GTP: tissue Plasma
smiles,measurement,setting,value
CN1C(=O)OC(C)(C)C1=O [TRIMETHADIONE],TERMINAL_BW,3 h,205.3 g
same,APTT,3 h,17.8 s
same,Bas,3 h,0.2%
same,Eos,3 h,0.8%
same,Fbg,3 h,261 mg/dL
same,Hb,3 h,13.4 g/dL
same,Ht,3 h,40.1%
same,Lym,3 h,79.8%
same,MCH,3 h,21.8 pg
same,MCHC,3 h,33.5%
same,MCV,3 h,65.1 fL
same,Mono,3 h,3%
same,Neu,3 h,16%
same,PT,3 h,13.8 s
same,Plat,3 h,125.1 x10_4/uL
same,RBC,3 h,616.4 x10_4/ul
same,Ret,3 h,8.2%
same,WBC,3 h,86.1 x10_2/uL
same,KIDNEY_L,3 h,1 g
same,KIDNEY_R,3 h,0.9 g
same,KIDNEY_TOTAL,3 h,1.9 g
same,LIVER,3 h,9 g
same,A/G,3 h,0.9
same,ALP,3 h,1845.4 IU/L
same,ALT,3 h,43.8 IU/L
same,AST,3 h,85 IU/L
same,BUN,3 h,9.6 mg/dL
same,CRE,3 h,0.2 mg/dL
same,Ca,3 h,10.6 mg/dL
same,Cl,3 h,107.4 meq/L
same,DBIL,3 h,0.006 mg/dL
same,GLC,3 h,181.4 mg/dL
same,IP,3 h,8.9 mg/dL
same,K,3 h,4.2 meq/L
same,LDH,3 h,152 IU/L
same,Na,3 h,140.6 meq/L
same,PL,3 h,133.8 mg/dL
same,RALB,3 h,2.5 g/dL
same,TBIL,3 h,0.07 mg/dL
same,TC,3 h,72.2 mg/dL
same,TG,3 h,42.6 mg/dL
same,TP,3 h,5.3 g/dL
same,gamma-GTP,3 h,1.2 IU/L
same,TERMINAL_BW,6 h,205.6 g
same,APTT,6 h,18.9 s
same,Bas,6 h,0%
same,Eos,6 h,1%
same,Fbg,6 h,284.2 mg/dL
same,Hb,6 h,13.1 g/dL
same,Ht,6 h,39.6%
same,Lym,6 h,77.4%
same,MCH,6 h,21.4 pg
same,MCHC,6 h,33.2%
same,MCV,6 h,64.4 fL
same,Mono,6 h,2.4%
same,Neu,6 h,19%
same,PT,6 h,13.8 s
same,Plat,6 h,122.3 x10_4/uL
same,RBC,6 h,615.2 x10_4/ul
same,Ret,6 h,8.7%
same,WBC,6 h,78 x10_2/uL
same,KIDNEY_L,6 h,0.9 g
same,KIDNEY_R,6 h,0.9 g
same,KIDNEY_TOTAL,6 h,1.9 g
same,LIVER,6 h,8.6 g
same,A/G,6 h,0.9
same,ALP,6 h,1304.6 IU/L
same,ALT,6 h,34.4 IU/L
same,AST,6 h,72.2 IU/L
same,BUN,6 h,9 mg/dL
same,CRE,6 h,0.2 mg/dL
same,Ca,6 h,10.5 mg/dL
same,Cl,6 h,108.2 meq/L
same,DBIL,6 h,0.002 mg/dL
same,GLC,6 h,176.4 mg/dL
same,IP,6 h,8.9 mg/dL
same,K,6 h,4.2 meq/L
same,LDH,6 h,109.8 IU/L
same,Na,6 h,140.6 meq/L
same,PL,6 h,145.4 mg/dL
same,RALB,6 h,2.5 g/dL
same,TBIL,6 h,0.064 mg/dL
same,TC,6 h,83 mg/dL
same,TG,6 h,49.6 mg/dL
same,TP,6 h,5.4 g/dL
same,gamma-GTP,6 h,1.4 IU/L
same,TERMINAL_BW,9 h,205.5 g
same,APTT,9 h,19.5 s
same,Bas,9 h,0%
same,Eos,9 h,0.8%
same,Fbg,9 h,276.8 mg/dL
same,Hb,9 h,13.5 g/dL
same,Ht,9 h,40.8%
same,Lym,9 h,75.2%
same,MCH,9 h,20.9 pg
same,MCHC,9 h,33%
same,MCV,9 h,63.4 fL
same,Mono,9 h,2.2%
same,Neu,9 h,21.4%
same,PT,9 h,13.7 s
same,Plat,9 h,114.8 x10_4/uL
same,RBC,9 h,642.8 x10_4/ul
same,Ret,9 h,7.6%
same,WBC,9 h,82.3 x10_2/uL
same,KIDNEY_L,9 h,0.9 g
same,KIDNEY_R,9 h,0.9 g
same,KIDNEY_TOTAL,9 h,1.7 g
same,LIVER,9 h,7.9 g
same,A/G,9 h,0.9
same,ALP,9 h,1637 IU/L
same,ALT,9 h,38 IU/L
same,AST,9 h,77 IU/L
same,BUN,9 h,9.6 mg/dL
same,CRE,9 h,0.2 mg/dL
same,Ca,9 h,10.5 mg/dL
same,Cl,9 h,108 meq/L
same,DBIL,9 h,0.002 mg/dL
same,GLC,9 h,176.6 mg/dL
same,IP,9 h,9.7 mg/dL
same,K,9 h,3.9 meq/L
same,LDH,9 h,76.4 IU/L
same,Na,9 h,141.4 meq/L
same,PL,9 h,133.6 mg/dL
same,RALB,9 h,2.5 g/dL
same,TBIL,9 h,0.064 mg/dL
same,TC,9 h,72.8 mg/dL
same,TG,9 h,31.2 mg/dL
same,TP,9 h,5.4 g/dL
same,gamma-GTP,9 h,1.2 IU/L
same,TERMINAL_BW,24 h,223.7 g
same,APTT,24 h,17.1 s
same,Bas,24 h,0%
same,Eos,24 h,1%
same,Fbg,24 h,254 mg/dL
same,Hb,24 h,13.1 g/dL
same,Ht,24 h,39.5%
same,Lym,24 h,77.2%
same,MCH,24 h,21.8 pg
same,MCHC,24 h,33%
same,MCV,24 h,66.1 fL
same,Mono,24 h,3%
same,Neu,24 h,18.2%
same,PT,24 h,13.3 s
same,Plat,24 h,113.7 x10_4/uL
same,RBC,24 h,598 x10_4/ul
same,Ret,24 h,7.3%
same,WBC,24 h,99.1 x10_2/uL
same,KIDNEY_L,24 h,1 g
same,KIDNEY_R,24 h,0.9 g
same,KIDNEY_TOTAL,24 h,1.9 g
same,LIVER,24 h,10.4 g
same,A/G,24 h,0.9
same,ALP,24 h,1802.2 IU/L
same,ALT,24 h,47.2 IU/L
same,AST,24 h,74.8 IU/L
same,BUN,24 h,15 mg/dL
same,CRE,24 h,0.2 mg/dL
same,Ca,24 h,10.9 mg/dL
same,Cl,24 h,104.8 meq/L
same,DBIL,24 h,0.01 mg/dL
same,GLC,24 h,165.4 mg/dL
same,IP,24 h,7.8 mg/dL
same,K,24 h,4 meq/L
same,LDH,24 h,82 IU/L
same,Na,24 h,142.8 meq/L
same,PL,24 h,161 mg/dL
same,RALB,24 h,2.6 g/dL
same,TBIL,24 h,0.056 mg/dL
same,TC,24 h,85.6 mg/dL
same,TG,24 h,92.2 mg/dL
same,TP,24 h,5.6 g/dL
same,gamma-GTP,24 h,1 IU/L
